pIC50: −log10 of the molar value. Entries after “also recorded” stand apart in the source; their conditions may differ.
Legend:
LNCaP cells = test: Cellular proliferation assay (alamarBlue) LNCaP; assay type: cell-based; settings: Homo sapiens, 168 hours, read-out: Prostate LNCaP IC50
Procedure: (§1) In accordance with the invention, the ability of the substances to inhibit the proliferation of various cell lines was determined. Cell viability was determined by means of the alamarBlue® reagent (Invitrogen). […] After incubation overnight at 37° C., the fluorescence values were determined (CI values). […] Then the fluorescence values were determined (CO values).
(§2) The substances were investigated in the cell lines in Table 1, which for example represent the stated indications: […]

MOLP-8 cells = test: Cellular proliferation assay (alamarBlue) MOLP-8; assay type: cell-based; settings: Homo sapiens, 120 hours, read-out: Multiple myeloma MOLP-8 IC50
Procedure: as §1, §2

MOLM-13 cells [1] = test: Cellular proliferation assay (alamarBlue) MOLM-13; assay type: cell-based; settings: Homo sapiens, 96 hours, read-out: Leukaemia MOLM-13 IC50
Procedure: as §1, §2

B16F10 melanoma = B16F10 melanoma tumour model; settings: for weight loss: oral, day 2 to day 11
Procedure: (§3) C57BL/6 mice were inoculated on day 0 with 0.5×10^6 cells in 0.1 ml medium, subcutaneously, in the right flank. […] The substances were administered orally for 10 days (day 2 to day 11). […] Practical example 2 was applied at a dose of 160 or 120 mg/kg.

[2] = B16F10 melanoma tumour model; settings: C57BL/6, mouse, in vivo, po
Procedure: as §3

MDA-MB-231 cells = test: Cellular proliferation assay (alamarBlue) MDA-MB-231; assay type: cell-based; settings: Homo sapiens, 96 hours, read-out: Breast MDA-MB-231 IC50
Procedure: as §1, §2

HeLa-MaTu cells = test: Cellular proliferation assay (alamarBlue) HeLa-MaTu; assay type: cell-based; settings: 96 hours, read-out: Cervix HeLa-MaTu IC50
Procedure: as §1, §2

[3] = In-vivo tolerability in the mouse; parameters: species or system female NMRI nude mice; settings: for Drug-induced deaths (day): 3 animals per group
Procedure: The substances were formulated in NMP/PEG300 (1/9 V/V). They were administered orally, in an amount of 10 ml/kg, once or twice daily for a period of 5 to 7 days to female NMRI nude mice (6-8 weeks old; 3 animals per group). Body weight and mortality of the mice were monitored daily up to the end of the study. Toxicity was defined as follows: ≧10% substance-induced deaths or ≧20% weight loss.

VCaP cells = test: Cellular proliferation assay (alamarBlue) VCaP; assay type: cell-based; settings: Homo sapiens, 168 hours, read-out: Prostate VCaP IC50
Procedure: as §1, §2

MOLM-13 cells [4] = test: MOLM-13 acute monocytic leukaemia tumour model; settings: 70 mg/kg oral daily; significance P<0.05
Procedure: NMRI nude mice were inoculated subcutaneously in the right flank on day 0 with 2×10^6 MOLM-13 cells in 0.1 ml Matrigel. […] Practical example 1 and practical example 2 were dissolved in 40% PEG400, 5% ethanol, 25% Solutol. The substances were administered orally, daily for […] (day 3 to day 14). […] Practical examples 1 and 2 were applied at a daily dose of 200 (highest dose used), 120 or 70 mg/kg.

MCF-7 cells = test: Cellular proliferation assay (alamarBlue) MCF-7; assay type: cell-based; settings: Homo sapiens, MCF7, 96 hours, read-out: Breast MCF-7 IC50
Procedure: as §1, §2

B16F10 cells = test: Cellular proliferation assay (alamarBlue) B16F10; assay type: cell-based; settings: Mus musculus, B16-F10, 96 hours, read-out: Melanoma B16F10 IC50
Procedure: as §1, §2

[5] = Plasma concentrations from in-vivo tests and PK parameters; settings: mouse; for Plasma concentration: 60 mg/kg p.o.
Procedure: After thawing and shaking, the samples are centrifuged for 20 minutes at 4° C. and approx. 2000×g. An aliquot of the supernatant (approx. 25 μL) is measured by LCMS analysis. If high plasma or tissue levels are expected (>ULOQ, as a rule 5 μM) the precipitated samples are additionally diluted 1:100 with ACN/H2O (80/20, v/v)+internal standard and corresponding aliquots are measured by LCMS. For this, the test substance is added in 5-9 concentrations, corresponding to the determination range of the analytical method, to a control matrix (calibration samples), e.g. 0, 1, 10, 100, 1000, 5000 nM. For this, a portion of solid is weighed and is dissolved in DMSO (as a rule 1 mM stock solution). This stock solution is further diluted 1:10 with DMSO ([…]). Then 1:5 (v/v) ACN+internal standard (soln. A) is added to the calibration samples and processed further as with the plasma samples. The calibration series in solvent takes place similarly to the plasma calibration described. The test substance is in this case prepared in ACN/H2O (50/50, v/v) and then 1:5 (v/v) ACN+internal standard is added to the samples. This series serves for calibration of the diluted samples. The following PK parameters are calculated from these concentration-time profiles obtained: […]
AUC(0-tlast),norm multiplied by the free fraction (fu) of the species investigated.

plasma proteins = test: Plasma protein binding by equilibrium dialysis; assay type: in vitro ADME, mouse
Procedure: The binding of test substances to plasma proteins is determined by equilibrium dialysis by means of the Ht-dialysis apparatus (96-well) made of Teflon and a semipermeable membrane (regenerated cellulose, MWCO 12-14K). This separates 150 μl of each of a plasma side and a buffer side (50 mM phosphate buffer). The test substance is added in 2 concentrations (usually 3 and 0.3 μM) to the plasma side and binds to plasma proteins. The unbound fraction of the test substance passes through the membrane and is distributed on either side until equilibrium is established (after approx. 6-8 h at 37° C.). The substance concentration on the buffer side and the plasma side is determined by LC-MS analysis. For this, both sides are brought by dilution with buffer or plasma to the same matrix (10% plasma) and then precipitated with methanol. The free (unbound) fraction (fu) is calculated from the quotient of the buffer and plasma concentration. Stability tests and recovery tests are run concurrently as controls. In addition, the substance in buffer is dialysed against buffer, to check the nonspecific binding to apparatus and membrane and establishment of equilibrium. Because during incubation the osmotic pressure of the plasma proteins leads to dilution of the plasma (volume shift), this possible error is determined by weighing blank plasma samples and is included in the calculation of fu. Establishment of equilibrium and plasma stability should have a value not lower than 80% and the recovery should be at least 30%. A free fraction of <1% is regarded as high, between 1 and 10% as moderate and >10% as low plasma protein binding.

[6] = oral 50 mg/kg, QD × 5, twice daily
[7] = oral 100 mg/kg, QD × 5, twice daily
[8] = oral 100 mg/kg, QD × 7, once daily

SMILES: Cc1sc2c(c1C)C(c1ccc(Cl)cc1)=N[C@@H](CC(=O)OC(C)(C)C)c1nnc(C)n1-2 [Example V1, tert-Butyl[(S)-4-(4-chlorophenyl)-2,3,9-trimethyl-6H-thieno[3,2-f][1,2,4]triazolo[4,3-a][1,4]diazepin-6-yl]acetate, reference compound]
- pIC50 (LNCaP cells): 7.20
- pIC50 (MOLP-8 cells): 7.20
- pIC50 (MOLM-13 cells [1]): 7.23
- weight loss (B16F10 melanoma; 120 mg/kg dose): 2%
- weight loss (B16F10 melanoma; 160 mg/kg dose): 6%
- deaths (B16F10 melanoma; on day 12, in both dose groups): One mouse (out of 12) died
- MTD at 10 days [2]: 55 mg/kg
- pIC50 (MDA-MB-231 cells): 7.07
- pIC50 (HeLa-MaTu cells): 6.97
- maximum body weight loss ([3]; 50 mg/kg twice daily, on day 6): 7%
- highest weight loss ([3]; daily dose of 100 mg/kg for 7 days, on the 9th day): 10%
- MTD ([3]; female, NMRI nude, mouse, in vivo, oral, once daily, read-out: maximum tolerated treatment dose (MTD), single daily treatment): 100 mg/kg
- % maximum body weight change (day) [3, 6]: −7 (6) %
- Remarks (tolerability) [3, 6]: MTD
- Drug-induced deaths (day) [3, 6]: 0/3
- % maximum body weight change (day) [3, 7]: −19 (5) %
- Remarks (tolerability) ([3]; oral 100 mg/kg, QD × 5, twice daily, 100 mg/kg): Not tolerated
- Drug-induced deaths (day) [3, 7]: 2
- % maximum body weight change (day) [3, 8]: −10 (9) %
- Remarks (tolerability) ([3]; oral 100 mg/kg, QD × 7, once daily, 100 mg/kg): tolerated; also recorded: MTD (10% body-
- Drug-induced deaths (day) [3, 8]: 0/3
- pIC50 (VCaP cells): 7.43
- activity on tumour growth (MOLM-13 cells [4]): biologically active
- pIC50 (MCF-7 cells): 6.83
- pIC50 (B16F10 cells): 7.17
- Plasma concentration ([5]; 1 h): 2245.8 ng/mL
- Plasma concentration ([5]; 3 h): 1220.2 ng/mL
- Plasma concentration ([5]; 5 h): 587.2 ng/mL
- Plasma concentration ([5]; 7 h): 321.5 ng/mL
- AUC(0-tlast),norm,u ([5]; single oral dose 60 mg/kg, AUCnorm multiplied by fu): 0.002 kg·h/L
- AUC(0-tlast),norm ([5]; single oral dose 60 mg/kg, dose-normalized): 0.12 kg·h/L
- tlast ([5]; single oral dose 60 mg/kg, last time point with measurable plasma concentration): 7.0 h
- fu (plasma proteins; free fraction of the species investigated (mouse), as used in Table 6): 1.5%
- fraction unbound (plasma proteins; mouse, plasma, free (unbound) fraction, equilibrium dialysis, read-out: Protein binding, given as % fu): 0.015

From US20140213575A1, “6H-Thieno[3,2-f][1,2,4]triazolo[4,3-a][1,4]diazepines” (BAYER INTELLECTUAL PROPERTY GMBH, priority 2011, published 2014)
